Data from paper PMC8861568, “Identification of (Z)-2-benzylidene-dihydroimidazothiazolone derivatives as tyrosinase inhibitors: Anti-melanogenic effects and in silico studies” (Computational and Structural Biotechnology Journal, 2022).
“Also recorded” adds a separate entry of the source.

Columns and labels:
B16F10 cells [1] = assay: Cell viability, EZ-cytox assay; assay type: cell-based, murine; conditions: up to 20 μM, 48 h
Description: Before examining inhibitory effects of compounds 1b and 1f on cellular tyrosinase activity, we examined their cytotoxic effects on B16F10 murine cells using the EZ-cytox assay (Daeil Lab Service, Seoul, Korea). After B16F10 cells had been cultured for 24 h, cells were treated with different concentrations (0, 1, 2, 5, 10 or 20 μM) of 1b or 1f for 48 h in a humidified atmosphere. Optical densities (ODs) were measured at 450 nm using a microplate reader.
Cell viability assays were performed at 37 °C as previously described with minor modification using the EZ-cytox assay. In brief, B16F10 melanoma cells were seeded in 96-well plates at a density of 1 × 10^4 cells/well and incubated in a humidified 5% CO2 atmosphere for 24 h at 37 °C. Cells were then treated with compounds 1b or 1f at 0, 1, 2, 5, 10, or 20 µM/well for 48 h. EZ-cytox solution (10 µL) (Daeil Lab Service, Seoul, Korea) was then added to each well and incubated for 1 h at 37 °C. Cell viabilities were assessed by measuring absorbances at 450 nm using a microplate reader (VersaMax^TM, Molecular Devices, Sunnyvale, CA, USA). All experiments were independently conducted three times.

B16F10 cells [2] = assay: Extracellular melanin (melanin level in medium) of B16F10 cells; assay type: cell-based, murine; conditions: 48 h; for melanin levels in media compared with kojic acid: α-MSH + IBMX; for melanin levels in media: 5, 10, 20 μM, α-MSH 1 μM + IBMX 200 μM
Description: To determine whether melanin levels in cell culture media were influenced by compounds 1b or 1f, melanin contents in B16F10 cell culture media after treatments with derivatives at different concentrations in the presence of α -MSH and IBMX for 48 h were analyzed by measuring optical densities at 405 nm using a microplate reader.
(§1) The inhibitory effects of compounds 1b and 1f on intracellular melanin contents were investigated as previously described. B16F10 cells were seeded at a density of 1 × 10^5 cells/well in 6-well plates and incubated in a humidified 5% CO2 atmosphere for 24 h at 37 °C. […] For extracellular melanin contents, the optical density of the cell culture media was directly measured at 405 nm. On the other hand, for intracellular melanin contents, the following procedure was performed. Briefly, after washing twice with PBS, adherent cells were detached by incubation in Trypsin/EDTA for 1 min. Pellets were dissolved in 100 μL of 1 N NaOH and then incubated for 1 h at 60 °C to dissolve the melanin. Intracellular melanin was quantified by measuring optical densities at 405 nm using a microplate reader (VersaMax^TM, Molecular Devices, Sunnyvale, CA, USA). Results were normalized versus cell pellet total protein using BCA protein assay reagent using BSA as the standard (Thermo Scientific, Rockford, IL, USA). The intracellular melanin contents were calculated using the following equation: (ΔODsample/ΔODcontrol) × 100%; where ΔODsample = the optical density of the test compound, and ΔODcontrol = the optical density of control. Experiments were performed in triplicate.

B16F10 cells [3] = assay: Intracellular melanin content in B16F10 cells; assay type: cell-based, murine; conditions: 48 h; for intracellular melanin production compared with kojic acid: α-MSH + IBMX; for intracellular melanin production: 5, 10, 20 μM, α-MSH 1 μM + IBMX 200 μM
Description: To determine whether the inhibitory effects of compounds 1b and 1f on cellular TYR influence melanogenesis, cellular melanin production was measured. As was performed in TYR inhibition experiments, B16F10 cells co-stimulated with α -MSH and IBMX were used to compare the inhibitory effects of 1b and 1f on melanogenesis. Kojic acid was used as the positive control. […] Intracellular melanin contents were determined by measuring optical densities at 405 nm.
as §1

[4] = test system: mushroom tyrosinase (mTYR); assay: Mushroom tyrosinase inhibition assay; assay type: biochemical, Agaricus bisporus; conditions: for IC50: mushroom tyrosinase, L-tyrosine substrate
Description: The tyrosinase inhibitory activity assays on the synthesized DHIT derivatives 1a – 1 k was performed using mushroom tyrosinase (mTYR), as previously described with minor modification. […] The optical densities of dopachrome produced during incubation were measured using a microplate reader (VersaMax™, Molecular Devices, Sunnyvale, CA, USA) at 492 nm. […] All experiments were conducted in triplicate. To calculate the tyrosinase inhibitory activities, the following formula was used: % inhibition = [(1− (A/B)) × 100], where A is test sample optical density and B is the optical density of the non-treated control.
IC50 values were calculated by plotting linear regression curves of percentage inhibitions versus derivative concentrations. The negative control was obtained by adding dimethyl sulfoxide (DMSO) instead of a DHIT derivative.

Compound | cytotoxic effect on B16F10 cells (B16F10 cells [1]) | melanin levels in media compared with kojic acid (B16F10 cells [2]; 1f at 20 μM) | melanin levels in media (B16F10 cells [2]) | intracellular melanin production compared with kojic acid (B16F10 cells [3]; 1f at 20 μM, kojic acid 20 μM) | intracellular melanin production (B16F10 cells [3]) | mushroom tyrosinase inhibition compared with kojic acid [4] | IC50 [4] [µM] | fold stronger tyrosinase inhibitor than kojic acid ([4]; ratio of IC50 values) [fold] | melanin levels in media compared with kojic acid (B16F10 cells [2]; 1b at 5 μM) | intracellular melanin production compared with kojic acid (B16F10 cells [3]; 1b at 5 μM) | fold more potent tyrosinase inhibition than MHY773 ([4]; ratio of IC50 values) [fold]
COc1ccc(/C=c2\sc3n(c2=O)CCN=3)cc1O [Compound 1f, (Z)-2-(3-Hydroxy-4-methoxybenzylidene)-5,6-dihydroimidazo[2,1-b]thiazol-3(2H)-one] | without perceptible cytotoxicity; also recorded: Neither 1b nor 1f had a significant cytotoxic effect | suppressed these increases more than kojic acid at 20 μM | significantly and concentration-dependently suppressed these increases | stronger inhibitory effect on melanogenesis than kojic acid | significantly and concentration-dependently suppressed this increase | inhibited mTYR more than kojic acid | 17.1 ± 1.01 | 4.9 | – | – | –
O=c1/c(=C/c2ccc(O)cc2O)sc2n1CCN=2 [Compound 1b, (Z)-2-(2,4-Dihydroxybenzylidene)-5,6-dihydroimidazo[2,1-b]thiazol-3(2H)-one] | without perceptible cytotoxicity; also recorded: Neither 1b nor 1f had a significant cytotoxic effect | – | significantly and concentration-dependently suppressed these increases | – | significantly and concentration-dependently suppressed this increase | inhibited mTYR more than kojic acid | 0.88 ± 0.91 | – | suppressed these increases more than kojic acid at 20 μM | by the same extent as kojic acid at 20 μM | ~3.3
